# pIC50: −log10 of the molar value.
# Assays:
# human CSNK1A1 = human CSNK1A1 (Homo sapiens (Human), UniProt P48729); assay: CSNK1A1 Assay 2 (ADP-Glo, 1 μM ATP); format: biochemical; conditions: median, Table 2, read-out: CSNK1A1 Assay 2 IC50 [mol/l] (median)
# Outline: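 GST-tagged full-length human CSNK1A1 from insect cells, preincubated 15 min with compound, then reacted 30 min at 22° C with 1 μM ATP and 30 μM biotinylated peptide substrate in pH 7.5 HEPES buffer. ADP measured by ADP-Glo luminescence; normalised to no-inhibitor (0%) and no-enzyme (100%) controls.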
# human CSNK1D = human CSNK1D (Homo sapiens (Human), UniProt P48730); assay: CSNK1D assay (ADP-Glo, 1 μM ATP); format: biochemical; conditions: median, Table 2, read-out: CSNK1D IC50 [mol/l] (median)
# Outline: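 GST-tagged full-length human CSNK1D (baculovirus/insect cell; typically about 0.5 ng/μL) preincubated with compound 15 min, then reacted 30 min at 22 °C with 1 μM ATP and 30 μM biotinylated peptide (final) in HEPES pH 7.5 buffer. ADP quantified by ADP-Glo luminescence; data normalised to no-inhibitor and no-enzyme controls.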
# human CSNK1D, sequence (P48730 whole entry): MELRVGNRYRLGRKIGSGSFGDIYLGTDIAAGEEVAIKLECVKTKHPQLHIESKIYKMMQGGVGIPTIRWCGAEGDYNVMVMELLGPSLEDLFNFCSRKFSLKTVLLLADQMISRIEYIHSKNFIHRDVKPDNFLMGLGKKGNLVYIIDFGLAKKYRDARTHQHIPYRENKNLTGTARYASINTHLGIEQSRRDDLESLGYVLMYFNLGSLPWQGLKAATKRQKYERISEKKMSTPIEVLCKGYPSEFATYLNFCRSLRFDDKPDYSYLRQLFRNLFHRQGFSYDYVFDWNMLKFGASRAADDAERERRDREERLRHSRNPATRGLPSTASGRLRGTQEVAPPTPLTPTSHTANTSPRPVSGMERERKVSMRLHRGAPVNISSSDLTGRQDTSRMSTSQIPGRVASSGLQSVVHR
# human CSNK1A1, sequence (P48729 whole entry): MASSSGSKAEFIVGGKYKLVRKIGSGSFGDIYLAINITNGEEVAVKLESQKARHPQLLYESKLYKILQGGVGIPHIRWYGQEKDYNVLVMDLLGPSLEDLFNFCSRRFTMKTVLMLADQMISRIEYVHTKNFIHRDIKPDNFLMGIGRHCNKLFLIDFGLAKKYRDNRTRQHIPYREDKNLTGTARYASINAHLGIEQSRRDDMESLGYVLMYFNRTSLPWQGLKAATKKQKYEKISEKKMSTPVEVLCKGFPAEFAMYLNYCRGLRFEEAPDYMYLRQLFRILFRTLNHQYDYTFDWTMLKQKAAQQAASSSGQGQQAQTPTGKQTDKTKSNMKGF
SMILES,pIC50 (human CSNK1A1),pIC50 (human CSNK1D)
"CN1CC(CC(F)(F)F)c2[nH]c(-c3ccnc(NC(=O)Cc4ccc(F)cc4)c3)c(Nc3ccccc3)c2C1=O (racemic) [Example 14, N-{4-[3-anilino-5-methyl-4-oxo-7-(2,2,2-trifluoroethyl)-4,5,6,7-tetrahydro-1H-pyrrolo[3,2-c]pyridin-2-yl]pyridin-2-yl}-2-(4-fluorophenyl)acetamide]",8.51,8.29
"CN1CC(CC(F)(F)F)c2[nH]c(-c3ccnc(NC(=O)Cc4ccc(F)cc4)c3)c(Nc3cscn3)c2C1=O (single isomer, unassigned) [Example 47, 2-(4-fluorophenyl)-N-{4-[(7R or S)-5-methyl-4-oxo-3-(1,3-thiazol-4-ylamino)-7-(2,2,2-trifluoroethyl)-4,5,6,7-tetrahydro-1H-pyrrolo[3,2-c]pyridin-2-yl]pyridin-2-yl}acetamide]",8.47,8.08
"C[C@@H](C(=O)Nc1cc(-c2[nH]c3ccn(C)c(=O)c3c2Nc2ccccc2)ccn1)c1ccc(F)cc1 (single isomer, unassigned) [Example 27]",7.68,7.55
"CCC1CNC(=O)c2c1[nH]c(-c1ccnc(NC(=O)Cc3ccc(F)cc3)c1)c2Nc1ccccc1 (racemic) [Example 1, N-{4-[3-anilino-7-ethyl-4-oxo-4,5,6,7-tetrahydro-1H-pyrrolo[3,2-c]pyridin-2-yl]pyridin-2-yl}-2-(4-fluorophenyl)acetamide]",8.82,8.26
"CN1CC(CC2CC2)c2[nH]c(-c3ccnc(NC(=O)Cc4ccc(F)cc4)c3)c(Nc3cscn3)c2C1=O (racemic) [Example 49, N-{4-[(7RS)-7-(cyclopropylmethyl)-5-methyl-4-oxo-3-(1,3-thiazol-4-ylamino)-4,5,6,7-tetrahydro-1H-pyrrolo[3,2-c]pyridin-2-yl]pyridin-2-yl}-2-(4-fluorophenyl)acetamide]",8.23,7.85
"CN1CC(CC(F)(F)F)c2[nH]c(-c3ccnc(NC(=O)Cc4ccc(F)cc4)c3)c(Nc3cscn3)c2C1=O (racemic) [Example 46, 2-(4-fluorophenyl)-N-{4-[(7RS)-5-methyl-4-oxo-3-(1,3-thiazol-4-ylamino)-7-(2,2,2-trifluoroethyl)-4,5,6,7-tetrahydro-1H-pyrrolo[3,2-c]pyridin-2-yl]pyridin-2-yl}acetamide]",7.64,7.14
"Cc1cn(C)c(=O)c2c(Nc3ccccc3)c(-c3ccnc(NC(=O)C(C)c4ccc(F)cc4)c3)[nH]c12 (racemic) [Example 39, N-[4-(3-anilino-5,7-dimethyl-4-oxo-4,5-dihydro-1H-pyrrolo[3,2-c]pyridin-2-yl)pyridin-2-yl]-2-(4-fluorophenyl)propanamide]",7.29,7.25
"CN1CC(CC(F)F)c2[nH]c(-c3ccnc(NC(=O)Cc4ccc(F)cc4)c3)c(Nc3ccccc3)c2C1=O (single isomer, unassigned) [Example 44, N-{4-[3-anilino-7-(2,2-difluoroethyl)-5-methyl-4-oxo-4,5,6,7-tetrahydro-1H-pyrrolo[3,2-c]pyridin-2-yl]pyridin-2-yl}-2-(4-fluorophenyl)acetamide]",8.48,8.23
"CC1CN(C)C(=O)c2c1[nH]c(-c1ccnc(NC(=O)Cc3ccc(F)cc3)c1)c2Nc1ccccc1 (single isomer, unassigned; (-)) [Example 7, (−)-N-{4-[3-anilino-5,7-dimethyl-4-oxo-4,5,6,7-tetrahydro-1H-pyrrolo[3,2-c]pyridin-2-yl]pyridin-2-yl}-2-(4-fluorophenyl)acetamide]",8.26,7.96
"Cc1ccccc1Nc1c(-c2ccnc(NC(=O)Cc3ccc(F)cc3)c2)[nH]c2c(CC(F)(F)F)cn(C)c(=O)c12 [Example 33, 2-(4-fluorophenyl)-N-{4-[5-methyl-3-(2-methylanilino)-4-oxo-7-(2,2,2-trifluoroethyl)-4,5-dihydro-1H-pyrrolo[3,2-c]pyridin-2-yl]pyridin-2-yl}acetamide]",8.07,8.21
"O=C1N[C@@H]2CCC[C@@H]2c2[nH]c(-c3ccnc(NC(=O)C(CC(F)F)c4ccc(F)cc4)c3)c(Nc3ccccc3)c21 (single isomer, unassigned; (-)) [Example 23, (−)-(2R or S)—N-{4-[cis-3-anilino-4-oxo-1,4,5,5a,6,7,8,8a-octahydrocyclopenta[b]pyrrolo[2,3-d]pyridin-2-yl]pyridin-2-yl}-4,4-difluoro-2-(4-fluorophenyl)butanamide]",7.62,7.42
"CN1CC(CC(F)F)c2[nH]c(-c3ccnc(NC(=O)Cc4ccc(F)cc4)c3)c(Nc3ccccc3)c2C1=O (single isomer, unassigned) [Example 43, N-{4-[3-anilino-7-(2,2-difluoroethyl)-5-methyl-4-oxo-4,5,6,7-tetrahydro-1H-pyrrolo[3,2-c]pyridin-2-yl]pyridin-2-yl}-2-(4-fluorophenyl)acetamide]",8.55,8.37
"Cn1cc(CC2CC2)c2[nH]c(-c3ccnc(NC(=O)Cc4ccc(F)cc4)c3)c(Nc3ccccc3)c2c1=O [Example 32, N-{4-[3-anilino-7-(cyclopropylmethyl)-5-methyl-4-oxo-4,5-dihydro-1H-pyrrolo[3,2-c]pyridin-2-yl]pyridin-2-yl}-2-(4-fluorophenyl)acetamide]",7.57,7.44
"CN1CC(CC(F)(F)F)c2[nH]c(-c3ccnc(NC(=O)C(CC(F)F)c4ccc(F)cc4)c3)c(Nc3cscn3)c2C1=O (single isomer, unassigned) [Example 54, (2R or S)-4,4-difluoro-2-(4-fluorophenyl)-N-{4-[(7R or S)-5-methyl-4-oxo-3-[(1,3-thiazol-4-yl)amino]-7-(2,2,2-trifluoroethyl)-4,5,6,7-tetrahydro-1H-pyrrolo[3,2-c]pyridin-2-yl]pyridin-2-yl}butanamide]",8.52,8.40
"CN1CC(CC(F)(F)F)c2[nH]c(-c3ccnc(NC(=O)Cc4ccc(F)cc4)c3)c(Nc3ccccc3)c2C1=O (single isomer, unassigned) [Example 15, N-{4-[3-anilino-5-methyl-4-oxo-7-(2,2,2-trifluoroethyl)-4,5,6,7-tetrahydro-1H-pyrrolo[3,2-c]pyridin-2-yl]pyridin-2-yl}-2-(4-fluorophenyl)acetamide]",8.03,7.70
"CN1CC(CC2CC2)c2[nH]c(-c3ccnc(NC(=O)Cc4ccc(F)cc4)c3)c(Nc3ccccc3)c2C1=O (single isomer, unassigned) [Example 19, N-{4-[3-anilino-7-(cyclopropylmethyl)-5-methyl-4-oxo-4,5,6,7-tetrahydro-1H-pyrrolo[3,2-c]pyridin-2-yl]pyridin-2-yl}-2-(4-fluorophenyl)acetamide]",8.41,8.19
"O=C1N[C@@H]2CCC[C@@H]2c2[nH]c(-c3ccnc(NC(=O)C(CC(F)F)c4ccc(F)cc4)c3)c(Nc3ccccc3)c21 (single isomer, unassigned; (-)) [Example 24, (−)-(2R or S)—N-{4-[cis-3-anilino-4-oxo-1,4,5,5a,6,7,8,8a-octahydrocyclopenta[b]pyrrolo[2,3-d]pyridin-2-yl]pyridin-2-yl}-4,4-difluoro-2-(4-fluorophenyl)butanamide]",7.52,7.62

# — patent US20230365554A1, “SUBSTITUTED PYRROLO-PYRIDINONE DERIVATIVES AND THERAPEUTIC USES THEREOF” (The Broad Institute, Inc., priority 2020, published 2023)
